What was measured:
Type in all cases: cell-based
[1] = tested on: Bacillus subtilis DSM 32315; assay: Compatibility of spores with additives on agar plates; details: neopentyl glycol 7 g/L, Protectosil WS405 20 g/L
Experimental: For spores of the strain Bacillus subtilis DSM 32315 compatibility with neopentyl glycol (7 g/L) and Protectosil® WS405 (20 g/L) was investigated on agar plates. A mixture of 3 g of meat extract, 5 g of peptone from casein and 1000 mL of distilled water adjusted to pH 7 using HCl/NaOH was used as medium.

[2] = tested on: Bacillus pseudofirmus (DSM 8715); assay: Compatibility of microorganisms with hydrophobizing agent and shrinkage reducer, liquid culture, turbidity; details: WS405 5, 20 or 30 g/L; neopentyl glycol 0.7, 7 or 14 g/L; 4 days, 30° C.
Experimental: (§1) The strains Bacillus subtilis (DSM 10) and Bacillus pseudofirmus (DSM 8715) were investigated for compatibility with hydrophobizing agents and shrinkage reducers.
(§2) A mixture of 3 g of meat extract, 5 g of peptone from casein and 1000 mL of distilled water adjusted to pH 7 using HCl/NaOH for Bacillus subtilis (DSM 10) and adjusted to pH 7 using Na sesquicarbonate for Bacillus pseudofirmus (DSM 8715) was used as the medium.
(§3) A pre-culture was initially produced for each of the two strains: To this end, an inoculation dose of the spores was in each case placed into a culture tube with 8 mL of the respective medium and left overnight in a laboratory shaker at 30° C. and 200 revolutions per minute. Furthermore, aqueous stock solutions respectively having a concentration of Protectosil® WS405 (hydrophobizing agent) of 500 g/L and a concentration of neopentyl glycol (shrinkage reducer) of 280 g/L were produced.
(§4) For the main cultures two 6-well spot plates were each filled with 8 mL of medium. Then, 10 μL of the first pre-culture were added to each well of the first plate and 10 μL of the second pre-culture were added to each well of the second plate. […]

[3] = tested on: Bacillus subtilis (DSM 10); assay: as above; details: WS405 5, 20 or 30 g/L; neopentyl glycol 0.7, 7 or 14 g/L; 4 days, 30° C.
Experimental: as §1, §2, §3, §4

CC(C)(CO)CO [neopentyl glycol]
formation of colonies in presence of additive [1]: Formation of colonies was observed in all cases | growth of microorganism in presence of additive (turbidity) [2]: growth of neither organism was impaired | growth of microorganism in presence of additive (turbidity) [3]: growth of neither organism was impaired

Reference: patent US20210163357A1, “Composition comprising at least one microorganism and use thereof” (Evonik Operations GmbH, priority 2018, published 2021)
